Patent US20240109900A1, “AZABICYCLIC SHP2 INHIBITORS” (IRBM S.P.A., priority 2021, published 2024)
pIC50: −log10 of the molar value. Where two headings read alike, the source gives them in different places.

What was measured:
[1] = biological target: SHP-2 enzyme (Met1-Leu525) (Homo sapiens (Human), UniProt Q06124); assay: SHP2 inhibition enzymatic assay; type: biochemical; settings: 0.5 nM SHP-2 activated by 500 nM IRS1 peptide, 75 μM DiFMUP substrate; read-out: SHP2wt-IC50
Procedure, shortened: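 Compounds were preincubated 30 min with 0.5 nM SHP-2 (Met1-Leu525) plus 500 nM IRS1 activating peptide (pH 7.2 HEPES, 5 mM DTT), then 75 μM DiFMUP substrate reacted 30 min at room temperature. After bpV quench, DiFMUP fluorescence gave % inhibition; four-parameter logistic fit yielded IC50.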

[2] = test system: ERK phosphorylation in KYSE-520 cells; assay: Phospho-ERK cellular assay; type: cell-based; settings: KYSE-520 cells, 2 h at 37° C., phospho-ERK1/2 (Thr202/Tyr204) TR-FRET, read-out: PERK IC50
Procedure, shortened: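 TR-FRET read-out of ERK1/2 Thr202/Tyr204 phosphorylation was taken after overnight antibody incubation at room temperature. Before that, KYSE-520 cells were treated 2 h at 37 °C with compound dilutions and lysed 30 min. Percent inhibition relative to vehicle and cell-free wells was fitted four-parametrically to give IC50.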

SHP-2 enzyme (Met1-Leu525), sequence (Q06124 1-525): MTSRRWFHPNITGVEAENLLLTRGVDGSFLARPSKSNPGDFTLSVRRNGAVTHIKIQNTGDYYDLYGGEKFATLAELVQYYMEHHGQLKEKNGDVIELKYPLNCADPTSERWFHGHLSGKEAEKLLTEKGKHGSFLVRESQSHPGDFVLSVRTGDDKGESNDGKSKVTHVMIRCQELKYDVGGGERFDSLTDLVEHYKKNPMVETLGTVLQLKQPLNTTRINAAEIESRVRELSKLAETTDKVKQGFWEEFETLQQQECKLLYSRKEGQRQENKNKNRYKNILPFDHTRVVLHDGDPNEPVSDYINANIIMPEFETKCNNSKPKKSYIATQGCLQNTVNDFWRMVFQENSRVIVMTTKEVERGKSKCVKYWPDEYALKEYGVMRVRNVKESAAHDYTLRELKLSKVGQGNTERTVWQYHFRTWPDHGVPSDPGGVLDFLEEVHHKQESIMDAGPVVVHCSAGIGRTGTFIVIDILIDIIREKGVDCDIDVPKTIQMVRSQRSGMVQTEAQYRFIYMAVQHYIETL

Structure (SMILES) | pIC50 [1] | pIC50 ([2]; Homo sapiens, KYSE-520, 2 h) | pIC50 [2]
NC[C@]1(c2ccccc2F)[C@@H]2CCN(c3cnc4c(-c5ccc6ncnn6c5)n[nH]c4n3)C[C@@H]21 [Example 327, ((1S,6R,7R)-3-(3-([1,2,4]triazolo[1,5-a]pyridin-6-yl)-1H-pyrazolo[3,4-b]pyrazin-6-yl)-7-(2-fluorophenyl)-3-azabicyclo[4.1.0]heptan-7-yl)methanamine] | > 6.30 | > 6.00 | –
NC[C@]1(c2ccccc2F)[C@@H]2CCN(c3cnc4c(-c5cc(F)cc(F)c5)n[nH]c4n3)C[C@@H]21 [Example 330, ((1S,6R,7R)-3-(3-(3,5-difluorophenyl)-1H-pyrazolo[3,4-b]pyrazin-6-yl)-7-(2-fluorophenyl)-3-azabicyclo[4.1.0]heptan-7-yl)methanamine] | > 6.30 | > 6.00 | –
NC[C@]1(c2ccccc2F)[C@@H]2CCN(c3cnc4c(-c5ccn6ncnc6c5)n[nH]c4n3)C[C@@H]21 [Example 333, ((1S,6R,7R)-3-(3-([1,2,4]triazolo[1,5-a]pyridin-7-yl)-1H-pyrazolo[3,4-b]pyrazin-6-yl)-7-(2-fluorophenyl)-3-azabicyclo[4.1.0]heptan-7-yl)methanamine] | > 6.30 | > 6.00 | –
NC[C@]1(c2ccccc2F)[C@@H]2CCN(c3cnc4c(C#Cc5ccccc5F)n[nH]c4n3)C[C@@H]21 [Example 334, ((1S,6R,7R)-7-(2-fluorophenyl)-3-(3-((2-fluorophenyl)ethynyl)-1H-pyrazolo[3,4-b]pyrazin-6-yl)-3-azabicyclo[4.1.0]heptan-7-yl)methanamine] | > 6.30 | > 6.00 | –
Cc1nc2cc(-c3n[nH]c4nc(N5CC[C@@H]6[C@H](C5)[C@@]6(CN)c5ccccc5F)cnc34)ccc2[nH]1 [Example 337, ((1S,6R,7R)-7-(2-fluorophenyl)-3-(3-(2-methyl-1H-benzo[d]imidazol-5-yl)-1H-pyrazolo[3,4-b]pyrazin-6-yl)-3-azabicyclo[4.1.0]heptan-7-yl)methanamine] | > 6.30 | > 6.00 | –
Cn1c(N2CC[C@@H]3[C@H](C2)[C@@]3(CN)c2ccccc2F)nc2[nH]nc(-c3ccc(C(N)=O)c4ncccc34)c2c1=O [Example 343, 5-(6-((1S,6R,7R)-7-(aminomethyl)-7-(2-fluorophenyl)-3-azabicyclo[4.1.0]heptan-3-yl)-5-methyl-4-oxo-4,5-dihydro-1H-pyrazolo[3,4-d]pyrimidin-3-yl)quinoline-8-carboxamide] | > 6.30 | < 5.30 | –
Cn1cc2c(Cl)c(-c3n[nH]c4nc(N5CC[C@@H]6[C@H](C5)[C@@]6(CN)c5cc(F)cc(F)c5)n(C)c(=O)c34)ccc2n1 [Example 344, 6-((1S,6R,7R)-7-(aminomethyl)-7-(3,5-difluorophenyl)-3-azabicyclo[4.1.0]heptan-3-yl)-3-(4-chloro-2-methyl-2H-indazol-5-yl)-5-methyl-1,5-dihydro-4H-pyrazolo[3,4-d]pyrimidin-4-one] | > 6.30 | > 6.00 | –
NC[C@]1(c2ccccc2F)[C@@H]2CCN(c3cnc4c(-c5ccc(O)nc5C(F)(F)F)n[nH]c4n3)C[C@@H]21 [Example 345, 5-(6-((1S,6R,7R)-7-(aminomethyl)-7-(2-fluorophenyl)-3-azabicyclo[4.1.0]heptan-3-yl)-1H-pyrazolo[3,4-b]pyrazin-3-yl)-6-(trifluoromethyl)pyridin-2-ol] | > 6.30 | < 5.30 | –

Continued, values first:

pIC50 [1] | pIC50 ([2]; Homo sapiens, KYSE-520, 2 h) | pIC50 [2] | Structure (SMILES)
> 6.30 | > 6.00 | – | CC(C)n1ncc2c(Cl)c(-c3n[nH]c4nc(N5CC[C@@H]6[C@H](C5)[C@@]6(CN)c5ccccc5F)cnc34)ccc21 [Example 325, ((1S,6R,7R)-3-(3-(4-chloro-1-isopropyl-1H-indazol-5-yl)-1H-pyrazolo[3,4-b]pyrazin-6-yl)-7-(2-fluorophenyl)-3-azabicyclo[4.1.0]heptan-7-yl)methanamine]
> 6.30 | > 6.00 | – | NC[C@]1(c2ccccc2F)[C@@H]2CCN(c3cnc4c(-c5ccc(N6CCCC6=O)cc5Cl)n[nH]c4n3)C[C@@H]21 [Example 326, 1-(4-(6-((1S,6R,7R)-7-(aminomethyl)-7-(2-fluorophenyl)-3-azabicyclo[4.1.0]heptan-3-yl)-1H-pyrazolo[3,4-b]pyrazin-3-yl)-3-chlorophenyl)pyrrolidin-2-one]
> 6.30 | > 6.00 | – | Cn1cnc2c(Cl)c(-c3n[nH]c4nc(N5CC[C@@H]6[C@H](C5)[C@@]6(CN)c5ccccc5F)cnc34)ccc21 [Example 329, ((1S,6R,7R)-3-(3-(4-chloro-1-methyl-1H-benzo[d]imidazol-5-yl)-1H-pyrazolo[3,4-b]pyrazin-6-yl)-7-(2-fluorophenyl)-3-azabicyclo[4.1.0]heptan-7-yl)methanamine]
> 6.30 | > 6.00 | – | NC[C@]1(c2ccccc2F)[C@@H]2CCN(c3cnc4c(-c5ccc(O)c(F)c5)n[nH]c4n3)C[C@@H]21 [Example 331, 4-(6-((1S,6R,7R)-7-(aminomethyl)-7-(2-fluorophenyl)-3-azabicyclo[4.1.0]heptan-3-yl)-1H-pyrazolo[3,4-b]pyrazin-3-yl)-2-fluorophenol]
> 6.30 | > 6.00 | – | NC[C@]1(c2ccccc2F)[C@@H]2CCN(c3cnc4c(-c5ccc(O)cc5F)n[nH]c4n3)C[C@@H]21 [Example 332, 4-(6-((1S,6R,7R)-7-(aminomethyl)-7-(2-fluorophenyl)-3-azabicyclo[4.1.0]heptan-3-yl)-1H-pyrazolo[3,4-b]pyrazin-3-yl)-3-fluorophenol]
> 6.30 | > 6.00 | – | NC[C@]1(c2ccccc2F)[C@@H]2CCN(c3cnc4c(-c5ccc6nn(C(F)F)cc6c5Cl)n[nH]c4n3)C[C@@H]21 [Example 335, ((1S,6R,7R)-3-(3-(4-chloro-2-(difluoromethyl)-2H-indazol-5-yl)-1H-pyrazolo[3,4-b]pyrazin-6-yl)-7-(2-fluorophenyl)-3-azabicyclo[4.1.0]heptan-7-yl)methanamine]
> 6.30 | > 6.00 | – | Cn1ccc2c(Cl)c(-c3n[nH]c4nc(N5CC[C@@H]6[C@H](C5)[C@@]6(CN)c5ccccc5F)cnc34)ccc2c1=O [Example 336, 6-(6-((1S,6R,7R)-7-(aminomethyl)-7-(2-fluorophenyl)-3-azabicyclo[4.1.0]heptan-3-yl)-1H-pyrazolo[3,4-b]pyrazin-3-yl)-5-chloro-2-methylisoquinolin-1(2H)-one]
> 6.30 | > 6.00 | – | Cn1cnc2ccc(-c3n[nH]c4nc(N5CC[C@@H]6[C@H](C5)[C@@]6(CN)c5ccccc5F)cnc34)c(Cl)c21 [Example 338, ((1S,6R,7R)-3-(3-(7-chloro-1-methyl-1H-benzo[d]imidazol-6-yl)-1H-pyrazolo[3,4-b]pyrazin-6-yl)-7-(2-fluorophenyl)-3-azabicyclo[4.1.0]heptan-7-yl)methanamine]
> 6.30 | – | > 6.00 | NC[C@]1(c2ccccc2F)[C@@H]2CCN(c3cnc4c(-c5ccc6c(=O)[nH]ncc6c5Cl)n[nH]c4n3)C[C@@H]21 [Example 340]
> 6.30 | > 6.00 | – | Cn1c(=O)oc2ccc(-c3n[nH]c4nc(N5CC[C@@H]6[C@H](C5)[C@@]6(CN)c5ccccc5F)cnc34)cc21 [Example 341, 5-(6-((1S,6R,7R)-7-(aminomethyl)-7-(2-fluorophenyl)-3-azabicyclo[4.1.0]heptan-3-yl)-1H-pyrazolo[3,4-b]pyrazin-3-yl)-3-methylbenzo[d]oxazol-2(3H)-one]
